Assay [1] has as its target His-tagged recombinant human Gal-3 (hGal-3) (Homo sapiens, UniProt P17931). The experiment in a line: Gal-3 HTRF assay (His-tagged hGal-3 / B-ASF). Format: binding. Particulars: 15 nM hGal-3, 15 nM B-ASF. (In general: TR-FRET usually uses a lanthanide donor and a delayed reading to cut background.)
Assay [2] concerns the target T1, Gal3 (Human Galectin-3) in THP-1 cells (Homo sapiens, UniProt P17931).
T1 construct: host or cells: THP-1
The assay is described as follows: ELISA Gal3 Degradation Assay in THP-1 Cells. To be noted: 48 hours, culture media Gal3 by ELISA. Format: cell-based. For orientation: An ELISA detects its analyte on a solid surface through an enzyme-linked reagent.

Assay [3] addresses T2, hCRBN (NanoLuc-CRBN fusion construct in HEK-293 cells) (Homo sapiens, UniProt Q96SW2).
T2 construct: expressed in transfected cells; host or cells: HEK-293
The experiment in a line: CRBN BRET Target Engagement. Format: cell-based. Particulars: NanoLuc-CRBN transfected HEK-293 cells, BRET with CRBN Probe. (In BRET a luciferase serves as donor, and the signal depends on an acceptor being close.)

The mark [4] stands for this setting: test 1, read-out: Supernatant (IC50) test 1.
[5] abbreviates: test 2, read-out: Supernatant (IC50) test 2.

This note sets out measurements from patent US12291522B2, “Galectin-3 inhibitors” (BRISTOL-MYERS SQUIBB COMPANY, priority 2020, dated 2025).

Where two headings read alike, the source gives them in different places.

As a reminder, the IC50 is the concentration needed to halve the response being measured.

T2 sequence (Q96SW2 whole entry, the tested form may be a part): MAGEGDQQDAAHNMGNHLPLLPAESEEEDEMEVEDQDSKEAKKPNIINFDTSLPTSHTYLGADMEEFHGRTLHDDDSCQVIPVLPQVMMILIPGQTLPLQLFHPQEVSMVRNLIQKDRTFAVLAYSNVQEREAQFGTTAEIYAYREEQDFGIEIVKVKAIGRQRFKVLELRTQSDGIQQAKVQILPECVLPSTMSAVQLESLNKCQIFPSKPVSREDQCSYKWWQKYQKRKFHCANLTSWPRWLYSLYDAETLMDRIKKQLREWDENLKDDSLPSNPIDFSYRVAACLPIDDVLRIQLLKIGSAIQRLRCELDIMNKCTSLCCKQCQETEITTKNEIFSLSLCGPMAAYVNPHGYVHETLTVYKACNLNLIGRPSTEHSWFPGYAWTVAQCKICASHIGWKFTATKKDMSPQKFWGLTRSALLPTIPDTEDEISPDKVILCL
Sequence of His-tagged recombinant human Gal-3 (hGal-3) (P17931 whole entry): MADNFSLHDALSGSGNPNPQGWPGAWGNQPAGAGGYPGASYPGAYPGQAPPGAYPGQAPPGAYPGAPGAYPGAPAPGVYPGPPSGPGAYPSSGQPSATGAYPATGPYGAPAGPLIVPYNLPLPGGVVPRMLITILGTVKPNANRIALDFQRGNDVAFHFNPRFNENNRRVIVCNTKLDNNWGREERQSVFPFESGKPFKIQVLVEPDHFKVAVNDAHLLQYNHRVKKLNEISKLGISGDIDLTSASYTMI
T1 sequence (P17931 whole entry): as above

Consider `Cc1nc([C@@H]2O[C@H](CO)[C@H](O)[C@H](n3cc(-c4cc(F)c(Cl)c(F)c4)nn3)[C@H]2OCC(=O)N2CC(COc3ccc(C(=O)Nc4cccc5c4CN(C4CCC(=O)NC4=O)C5=O)cc3)C2)n(-c2cc(Cl)ccc2C(F)(F)F)n1` (some centres unmarked) [Example 30], for which the half-maximal inhibitory concentration (IC50) came out at 86 nM in assay [1], 854 nM in assay [2] (setting [4]), 50 nM in assay [2] (setting [5]) and 10600 nM in assay [3].
On to `Cc1nc([C@@H]2O[C@H](CO)[C@H](O)[C@H](n3cc(-c4cc(F)c(Cl)c(F)c4)nn3)[C@H]2OCC(=O)N2CCC(Oc3ccc(C(=O)Nc4ccc5c(c4)CN(C4CCC(=O)NC4=O)C5=O)cc3)CC2)n(-c2cc(Cl)ccc2C(F)(F)F)n1` (some centres unmarked) [Example 31], for which the IC50 in assay [1] stood at 139 nM; in assay [2] (setting [4]) it was 50 nM; in assay [2] (setting [5]) it was 14 nM; in assay [3], 447 nM.
With `Cc1nc([C@@H]2O[C@H](CO)[C@H](O)[C@H](n3cc(-c4cc(F)c(Cl)c(F)c4)nn3)[C@H]2OCC(=O)N2CC(COc3ccc(C(=O)Nc4cccc5c4CN(C4CCC(=O)NC4=O)C5=O)nc3)C2)n(-c2cc(Cl)ccc2C(F)(F)F)n1` (some centres unmarked) [Example 32], the IC50 in assay [1] was determined as 94 nM; in assay [2] (setting [4]), 1250 nM; in assay [2] (setting [5]), 1580 nM; in assay [3], 13700 nM.
The like results for `Cc1nc([C@@H]2O[C@H](CO)[C@H](O)[C@H](n3cc(-c4cc(F)c(Cl)c(F)c4)nn3)[C@H]2OCC(=O)N2CC3(CC(Oc4ccc(C(=O)Nc5ccc6c(c5)CN(C5CCC(=O)NC5=O)C6=O)cc4)C3)C2)n(-c2cc(Cl)ccc2C(F)(F)F)n1` (some centres unmarked) [Example 34] were, in that order, 110 nM, 4580 nM, 210 nM and 1020 nM.
In the case of `Cc1nc([C@@H]2O[C@H](CO)[C@H](O)[C@H](n3cc(-c4cc(F)c(Cl)c(F)c4)nn3)[C@H]2OCC(=O)N2CC(Oc3ccc(C(=O)Nc4ccc5c(c4)CN(C4CCC(=O)NC4=O)C5=O)nc3)C2)n(-c2cc(Cl)ccc2C(F)(F)F)n1` (some centres unmarked) [Example 35], the half-maximal inhibitory concentration (IC50) in assay [1] amounted to 77 nM; in assay [2] (setting [4]), 314 nM; in assay [2] (setting [5]) it was 338 nM; in assay [3] it was 498 nM.
